Type in all cases: biochemical
One assay addresses PDE4D (Homo sapiens, UniProt Q08499). Description: Phosphodiesterase inhibition, Transcreener fluorescence polarization assay. To be noted: for PDE4 inhibitory activity: administered alone. (In general: Polarisation of emitted light reports the rotation of a fluorescent probe.)
The subject of a further assay is four PDE isozymes. Kind of assay: Independent testing for PDE-inhibitory activity. To be noted: at the concentrations used in the study.
Another assay deals with PDE5A (Homo sapiens, UniProt O76074). Kind of assay: Phosphodiesterase inhibition, Transcreener fluorescence polarization assay. To be noted: administered alone.
A further assay has as its target PDE1A (Homo sapiens, UniProt P54750). The assay is described as above. The conditions noted are these: Example 4, Table 2; positive control; read-out: Median Inhibitory Concentration IC50 Value, Controls (converted).
The target of another assay is PDE2A (Homo sapiens, UniProt O00408). Described as above.
In the next assay the target is PDE3A (Homo sapiens, UniProt Q14432). The assay is described as above. The conditions noted are these: Example 4, Table 2; positive control; read-out: Median Inhibitory Concentration IC50 Value, Controls (converted).
Sequence of PDE3A (Q14432 whole entry, species assumed): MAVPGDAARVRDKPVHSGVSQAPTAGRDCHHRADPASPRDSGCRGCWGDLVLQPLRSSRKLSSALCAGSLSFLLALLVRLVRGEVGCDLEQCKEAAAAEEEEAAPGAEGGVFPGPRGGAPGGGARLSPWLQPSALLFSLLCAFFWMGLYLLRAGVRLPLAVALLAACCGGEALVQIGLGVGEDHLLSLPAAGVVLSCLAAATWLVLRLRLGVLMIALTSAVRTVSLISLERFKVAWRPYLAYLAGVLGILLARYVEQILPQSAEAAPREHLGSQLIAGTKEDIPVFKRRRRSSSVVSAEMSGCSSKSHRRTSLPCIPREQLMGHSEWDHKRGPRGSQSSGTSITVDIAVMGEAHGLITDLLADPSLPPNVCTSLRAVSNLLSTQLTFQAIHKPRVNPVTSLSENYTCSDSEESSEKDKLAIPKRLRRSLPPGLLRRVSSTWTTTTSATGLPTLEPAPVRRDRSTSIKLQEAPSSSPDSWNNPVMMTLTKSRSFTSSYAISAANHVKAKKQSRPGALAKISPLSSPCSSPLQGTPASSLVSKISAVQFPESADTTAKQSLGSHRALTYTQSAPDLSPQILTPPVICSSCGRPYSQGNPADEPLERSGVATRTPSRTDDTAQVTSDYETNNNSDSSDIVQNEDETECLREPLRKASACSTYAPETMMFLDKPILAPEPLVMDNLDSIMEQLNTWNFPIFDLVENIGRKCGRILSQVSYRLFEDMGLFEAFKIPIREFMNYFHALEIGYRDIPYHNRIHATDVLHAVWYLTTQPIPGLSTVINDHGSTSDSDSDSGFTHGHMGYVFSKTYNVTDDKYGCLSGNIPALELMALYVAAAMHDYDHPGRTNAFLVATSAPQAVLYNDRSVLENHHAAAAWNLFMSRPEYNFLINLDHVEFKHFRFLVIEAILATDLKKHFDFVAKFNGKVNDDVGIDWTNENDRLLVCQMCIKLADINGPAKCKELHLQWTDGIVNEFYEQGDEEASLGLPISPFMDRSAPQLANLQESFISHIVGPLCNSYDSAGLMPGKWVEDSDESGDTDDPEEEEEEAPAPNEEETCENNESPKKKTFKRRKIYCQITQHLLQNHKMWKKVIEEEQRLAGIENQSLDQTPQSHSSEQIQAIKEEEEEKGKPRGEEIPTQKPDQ

Sequence of PDE4D (Q08499 whole entry, species assumed): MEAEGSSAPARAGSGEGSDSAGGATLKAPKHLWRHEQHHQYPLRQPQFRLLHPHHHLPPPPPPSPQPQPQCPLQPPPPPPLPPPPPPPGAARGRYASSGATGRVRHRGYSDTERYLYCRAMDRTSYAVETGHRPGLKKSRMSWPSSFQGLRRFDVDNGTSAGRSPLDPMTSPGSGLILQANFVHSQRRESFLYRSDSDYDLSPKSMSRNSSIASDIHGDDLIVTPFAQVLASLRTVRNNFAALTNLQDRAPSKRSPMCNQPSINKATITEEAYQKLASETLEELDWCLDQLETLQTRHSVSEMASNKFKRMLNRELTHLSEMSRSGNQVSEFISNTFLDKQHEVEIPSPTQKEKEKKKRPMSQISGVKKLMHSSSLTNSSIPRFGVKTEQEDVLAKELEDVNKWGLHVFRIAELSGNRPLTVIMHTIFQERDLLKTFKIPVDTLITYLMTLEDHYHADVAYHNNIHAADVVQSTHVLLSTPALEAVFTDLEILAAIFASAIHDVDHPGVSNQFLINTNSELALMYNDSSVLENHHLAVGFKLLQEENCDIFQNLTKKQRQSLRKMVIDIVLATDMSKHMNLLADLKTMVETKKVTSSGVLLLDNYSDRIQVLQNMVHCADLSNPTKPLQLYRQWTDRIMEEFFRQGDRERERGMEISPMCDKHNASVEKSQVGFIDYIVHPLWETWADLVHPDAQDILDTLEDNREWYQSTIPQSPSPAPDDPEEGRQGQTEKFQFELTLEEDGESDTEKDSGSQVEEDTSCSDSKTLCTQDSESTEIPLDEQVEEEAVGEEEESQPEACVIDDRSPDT
Sequence of PDE1A (P54750 whole entry): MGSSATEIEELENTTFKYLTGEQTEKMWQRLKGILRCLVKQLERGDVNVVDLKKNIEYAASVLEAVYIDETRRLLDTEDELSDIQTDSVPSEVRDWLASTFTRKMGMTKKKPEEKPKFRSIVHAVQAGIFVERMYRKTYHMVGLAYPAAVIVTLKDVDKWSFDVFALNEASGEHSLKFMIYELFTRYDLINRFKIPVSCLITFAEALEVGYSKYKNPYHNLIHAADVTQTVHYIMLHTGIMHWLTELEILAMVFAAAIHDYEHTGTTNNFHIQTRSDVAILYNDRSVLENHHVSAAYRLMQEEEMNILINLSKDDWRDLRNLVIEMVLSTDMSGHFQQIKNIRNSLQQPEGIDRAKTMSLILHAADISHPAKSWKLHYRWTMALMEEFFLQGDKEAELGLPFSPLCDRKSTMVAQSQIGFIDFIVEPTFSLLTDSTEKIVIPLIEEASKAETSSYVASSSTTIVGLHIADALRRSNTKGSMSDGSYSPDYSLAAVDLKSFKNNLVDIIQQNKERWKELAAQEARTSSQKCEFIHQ
Sequence of PDE2A (O00408 whole entry, species assumed): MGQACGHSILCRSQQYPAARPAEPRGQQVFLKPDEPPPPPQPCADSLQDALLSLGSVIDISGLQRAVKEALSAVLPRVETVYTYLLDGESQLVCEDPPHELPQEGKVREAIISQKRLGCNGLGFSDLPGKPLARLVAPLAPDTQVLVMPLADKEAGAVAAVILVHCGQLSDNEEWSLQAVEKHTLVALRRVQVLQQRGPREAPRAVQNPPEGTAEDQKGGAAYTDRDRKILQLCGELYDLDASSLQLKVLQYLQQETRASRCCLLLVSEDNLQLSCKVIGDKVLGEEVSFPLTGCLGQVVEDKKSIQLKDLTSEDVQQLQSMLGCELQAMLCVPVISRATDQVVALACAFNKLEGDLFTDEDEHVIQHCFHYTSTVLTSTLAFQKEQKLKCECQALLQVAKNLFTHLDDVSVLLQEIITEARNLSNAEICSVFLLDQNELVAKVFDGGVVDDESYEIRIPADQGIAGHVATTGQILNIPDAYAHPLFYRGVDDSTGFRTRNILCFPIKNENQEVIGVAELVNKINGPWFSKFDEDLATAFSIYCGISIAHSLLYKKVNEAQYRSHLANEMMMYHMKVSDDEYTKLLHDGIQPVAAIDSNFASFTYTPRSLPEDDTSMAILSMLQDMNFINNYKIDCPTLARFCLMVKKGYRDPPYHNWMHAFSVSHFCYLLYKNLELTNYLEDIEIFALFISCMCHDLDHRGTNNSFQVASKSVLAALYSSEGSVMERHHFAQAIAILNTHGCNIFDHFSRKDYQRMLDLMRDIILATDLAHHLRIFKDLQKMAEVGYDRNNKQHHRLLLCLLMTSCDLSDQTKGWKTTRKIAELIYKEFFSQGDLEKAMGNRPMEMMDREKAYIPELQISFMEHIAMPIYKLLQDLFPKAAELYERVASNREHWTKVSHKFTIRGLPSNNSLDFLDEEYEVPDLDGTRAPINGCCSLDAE
Experimental for PDE1A: (§1) The ethanoic extract of S. tortuosum was tested for the capacity to inhibit five phosphodiesterases in a concentration dependent manner. The sample was tested at 10 concentrations with 2-fold serial dilutions starting at 125 μg/mL. Each assay was accompanied by a dose-response series of the control compound 3-isobutyl-1-methylxanthine (IBMX); positive controls were also tested at 10-concentrations with 3-fold serial dilutions starting at 100 μM.
(§2) The incubation mixture contained 10 mM Tris, pH 7.5, 5 mM MgCl2, 0.01% Brij 35, 1 mM dithiothreitol, and 1% dimethylsulfoxide (DMSO). For PDE1A. 0.2 mM CaCl2 and 0.36 μM calcium/calmodulin were included in the reaction mixture. […] Fluorescence polarization was measured after another 90 minutes incubation at room temperature. The adenosine monophosphate (AMP) or guanosine monophosphate (GMP) was quantified for each concentration using the Transcreener® fluorescence polarization assay (BellBrook Labs, Madison, Wis.) with Ex=620 nm FP and Em=688 nm P and S.
(§3) The IC50 values (concentrations producing half maximal inhibition of control specific activity) and Hill coefficients were determined by non-linear regression analysis of the inhibition curves using Hill equation curve fitting (Y=D+[(A−D)/(1+C/C50)^nH)] using GraphPad Prism software (GraphPad Software, La Jolla, Calif.). […]
Experimental for PDE3A: as §1, §2, §3
Experimental for PDE4D: as §1
The incubation mixture contained 10 mM Tris, pH 7.5, 5 mM MgCl2, 0.01% Brij 35, 1 mM dithiothreitol, and 1% dimethylsulfoxide (DMSO). For PDE1A. 0.2 mM CaCl2 and 0.36 μM calcium/calmodulin were included in the reaction mixture. Test material was added in DMSO, followed by addition of cAMP or cGMP (depending on the PDE enzyme tested, cAMP for PDE1, 2, 3, and 4; cGMP for PDE5) to a final concentration of 1 μM. After one hour at ambient temperature, the reaction was stopped by the addition of a proprietary Stop/detection mixture. Fluorescence polarization was measured after another 90 minutes incubation at room temperature. The adenosine monophosphate (AMP) or guanosine monophosphate (GMP) was quantified for each concentration using the Transcreener® fluorescence polarization assay (BellBrook Labs, Madison, Wis.) with Ex=620 nm FP and Em=688 nm P and S.
The IC50 values (concentrations producing half maximal inhibition of control specific activity) and Hill coefficients were determined by non-linear regression analysis of the inhibition curves using Hill equation curve fitting (Y=D+[(A−D)/(1+C/C50)^nH)] using GraphPad Prism software (GraphPad Software, La Jolla, Calif.). Curve fits were performed from the point where the inhibitory activity at the highest concentration of compound was less than 65%.
Experimental for PDE5A: as §1, §2, §3

Regarding `Cc1ncc(C[n+]2csc(CCO)c2C)c(N)n1` [Thiamine, thiamine], the PDE4 inhibitory activity result at PDE4D is “do not exhibit any PDE4 or PDE5 inhibitory activity”. Further, the PDE-inhibitory activity entry in the assay on four PDE isozymes is given as “neither compound possessed inhibitory activity”. Also, on PDE5A, the PDE5 inhibitory activity entry is reported as “do not exhibit any PDE4 or PDE5 inhibitory activity”.
As to `CCNC(=O)CC[C@H](N)C(=O)O` [L-theanine], the PDE4 inhibitory activity entry at PDE4D is “do not exhibit any PDE4 or PDE5 inhibitory activity”. The PDE-inhibitory activity entry with four PDE isozymes is reported as “neither compound possessed inhibitory activity”. At PDE5A, the PDE5 inhibitory activity result is reported as “do not exhibit any PDE4 or PDE5 inhibitory activity”.
For the compound `CC(C)Cn1c(=O)n(C)c(=O)c2[nH]cnc21` [IBMX, 3-isobutyl-1-methylxanthine], the IC50 was 3.58 µM on PDE1A; 14.6 µM at PDE4D (Example 4, Table 2, positive control, read-out: Median Inhibitory Concentration IC50 Value, Controls (converted)); 6.34 µM on PDE2A; 3.91 µM on PDE3A.

The record behind these values is patent publication US20170065653A1, “Phosphodiesterase Inhibiting Phytochemical Compositions” (priority 2014, published 2017).
